Data taken from article PMC12084297, “Cytoplasmic connexin43-microtubule interactions promote glioblastoma stem-like cell maintenance and tumorigenicity” (Cell Death & Disease, 2025).

How the values were obtained:
β-actin = target: T1, β-actin (Homo sapiens, UniProt P60709); assay: Cellular thermal shift assay (CETSA), actin negative control; type: binding; conditions: VTC-037 GSC lysates, 57 °C, β-actin as negative control
T1 construct: fresh lysates of GSCs prepared in non-denaturing buffer; endogenous in cells; host or cells: VTC-037 patient-derived glioblastoma stem-like cells (lysate)
Experimental: For an initial determination of the melting profile of α- and β- tubulin, fresh lysates of GSCs prepared in non-denaturing buffer were dispensed into 96-well PCR plate in stem cell medium (approximately 10,000 cells/well/50 µl), and then subjected to temperature gradient (37–65 °C) for 20 min. Subsequently, centrifugation was performed at 14,000 rpm to sediment the unstable protein content. Supernatant was collected and SDS-PAGE gel was run, and immunodetection was performed to detect α- and β- tubulin using specific primary antibodies described above. A rabbit antibody against β-actin (Cell Signaling Technology; 4970) was used as negative control. Band intensities were quantified on LI-COR C-DiGit Blot Scanner, and subsequently Tagg(50) and Tagg(75) values were calculated for α- and β- tubulin. In a subsequent run, fresh lysates of GSCs were treated at various doses with 3-fold dilutions (222.2, 74.0, 24.7, 8.2 and 2.7 nM) of peptides JM2 and JM2-scrambled, together with DMSO as control, for 1 h. Samples were then subjected to heat challenge at 57 °C for 20 min, and unstable protein was removed by centrifugation step. Following an immunoblotting step, band intensities of the stable tubulin was quantified, and normalized to DMSO control. EC50 values of engagement for both peptide with α- and β- tubulin were subsequently calculated.

VTC-034 GSCs = assay: Peptide uptake by confocal fluorescence microscopy, VTC-034 GSCs; type: in vitro ADME, human; conditions: 50 μM, 24 h, fluorophore-conjugated streptavidin
Experimental: Cells were washed once with warm PBS before fixing in 4% paraformaldehyde for 20 min at room temperature or ice-cold methanol for 5 min on ice, washed twice, and held in PBS at 4°C until immunostaining was conducted. Cells were permeabilized and blocked in 5% normal goat or donkey serum (Fisher Scientific) and 0.1% Triton X-100 in PBS for 2 h at room temperature. Primary antibodies rabbit anti-Cx43 (MilliporeSigma; C6219), mouse anti-pan Cadherin (MilliporeSigma; C1821), or mouse anti-α-tubulin (MilliporeSigma; T6199) were diluted in blocking buffer and labeling was performed overnight at 4 °C. Cells were washed six times with PBS (2 × quick, 2 × 10 min, 2 × 5 min) prior to incubating with goat anti-mouse or -rabbit IgG secondary antibodies (Thermo Fisher) conjugated to Alexa Fluor 488 (A-11029; A-11034), Alexa Fluor 555 (A-21424; A-21429), or Alexa Fluor 647 (A-21236; A-21245) for confocal; or donkey anti-mouse or -rabbit IgG secondary antibodies conjugated to CF568 (Biotium; 20105 and 20098) or Alexa Fluor 647 (Jackson Immunoresearch; 715-605-151 and 711-605-152) for stochastic optical reconstruction microscopy (STORM; see section below), for 1 h at room temperature. DAPI (Thermo Fisher) was included with secondary antibodies to counterstain nuclei for confocal only and was omitted from labeling for STORM. […]

VTC-001 GSCs = assay: Gliosphere formation assay, VTC-001 GSCs; type: cell-based, human; conditions: VTC-001, 10, 50 or 100 μM every other day, 2 weeks
Experimental: GSCs and PDX GBM22 cells were plated as single cell suspension in low-attachment 96-well plates (GSCs: 100–500 cells per well; GBM22 cells: 500–2000 cells per well), using methods similar to those reported previously. Cells were then treated with peptides every other day. 2 weeks later, gliospheres were observed using phase contrast microscopy on a Revolve microscope (Echo Laboratories). The number of gliospheres was then determined, while the gliosphere size was assessed by diameter measurement. To evaluate stem cell frequency in GSCs, gliosphere formation assay was performed with limiting cell dilutions with cells plated at varying densities in low-attachment 96-well plates. Cells were treated with peptides every other day, and after 2 weeks, gliosphere-positive wells were observed and scored using phase contrast microscopy on a Revolve microscope. The stem cell frequency was analyzed using the online data analysis program ELDA (Extreme Limiting Dilution Analysis).

HEY1 mRNA = HEY1 mRNA by RT-qPCR, VTC-001 GSCs; type: cell-based, human; conditions: 50 μM, 24 h, RT-qPCR (as worded in text; no figure panel described)
Experimental: RNA was extracted using the PureLink^TM RNA mini extraction kit (Thermo Fisher) and on-column DNA digestion was completed using PureLink^TM DNase according to the manufacturer’s instructions. RNA was reverse transcribed to generate cDNA using the iScript^TM Reverse Transcription SuperMix for RT-qPCR kit (Bio-Rad Laboratories). Real-time PCR was performed using the SYBR select Master Mix for CFX (Thermo Fisher) in hard-shell 96-well PCR plates (Bio-Rad Laboratories) on a CFX Connect Real Time System (Bio-Rad Laboratories). Primer sequences used were: hNOTCH1_Fwd: 5’-CGCACAAGGTGTCTTCCAG-3’; hNOTCH1_Rev: 5’-CGGCGTGTGAGTTGATGA-3’; hHES1_Fwd: 5’-GGCTGGAGAGGCGGCTAA-3’; hHES1_Rev: 5’-[…]-3’; hHEY1_Fwd: 5’-[…]-3’; hHEY1_Rev: 5’-[…]-3’.

Row | Sequence | EC50 target engagement, actin (negative control) (β-actin) | Peptide localization after uptake (VTC-034 GSCs) | GSC-dependent gliosphere formation (VTC-001 GSCs) | Gliosphere size (diameter) (VTC-001 GSCs; n = 4) | Gliosphere number (VTC-001 GSCs; n = 6) | Hey1 mRNA expression (HEY1 mRNA)
1 | GSDVFKRKFVDRKVG [JM2-scrambled, reference compound] | no EC50 was detected | localized within the cytoplasm of GSCs |  |  |  | 
2 | VFFKGVKDRVKGRSD [JM2] | no EC50 was detected | localized within the cytoplasm of GSCs | inhibits VTC-001, VTC-034, and VTC-037 GSC-dependent gliosphere formation in a dose-dependent manner | significant decrease in gliosphere size | significant decrease in gliosphere size as assessed by diameter measurement (Fig. 6B), and number | significantly decreased the expression of Notch downstream targets Hes1 and Hey1 at the transcription level
